{
  "source": "patent US20150335678A1",
  "about": "“METHOD OF ACTIVATING STEM CELLS IN AN ANIMAL AND THE USE OF CHLORINE DIOXIDE FOR PREPARING MEDICINES FOR ACTIVATING STEM CELLS IN AN ANIMAL” (priority 2012, published 2015)",
  "key": {"[1]": {"tested_on": "CD34-positive mononuclear cells", "experiment": "CD34-positive mononuclear cells in peripheral blood of lower limb DVT patients, flow cytometry (Example 2)", "assay_type": "in vivo, human", "conditions": "before administration 0.38 ± 0.42, 14 days", "description": "The subjects consisted of 14 male and 6 female lower limb DVT patients with the unilateral limb suffer from the illness, aged from 59 to 76 years old (average age: 67.2 years old). The purpose of the clinical test was explained to all subjects and their consent was obtained before conducting the clinical test.\nThe first solution was a mixed solution made of sodium chlorite with the concentration of 7.47% and sodium chloride with the concentration of 1.59% with deionized water; the second solution was made of citric acid with the concentration of 16.7% with deionized water. Same volume of solutions were taken out from different vessels with different volumes and mixed up. Allow the solution to mix for 3-5 minutes and dilute it 5 times with normal saline, then filter it with 0.22 μm filter membrane of double-deck. The solution was immediately put into injector. The solution was prepared once being used. […]\nFive ml of peripheral blood was collected from the median cubital vein of the forearm of each patient using low molecular weight heparin anticoagulant before administration (before initial administration) and on day 7 and 14 after administration, and the collected blood was immediately stored at 4° C. and measured within 6 hours after collection. […]"}, "chronic eczema": {"tested_on": "chronic eczema", "experiment": "Chronic eczema patients, topical solution (Example 7)", "assay_type": "in vivo, human", "experimental": "The subjects consisted of 12 patients with chronic eczema and average seven years of course of disease. External used medicines and oral administration, such as glucocorticoid and antihistamine drug were used discontinuously, but were poor in treatment. Activating agent was administered according to the following methods:\nTo smear solution over the affected parts immediately, once a day for consecutive 10 to 15 days, and then stop administration. If the eczema relapsed, reusing it again."}, "[2]": {"tested_on": "postoperative complications of lung cancer", "experiment": "Postoperative complications of lung cancer (Example 12)", "assay_type": "in vivo, human", "conditions": "15 patients", "experimental": "The subjects consisted of 30 lung cancer patients of stage I, II III who had operations on lung cancer just now. The subjects were randomly assigned to treatment group and control group with 15 patients respectively.\n[…] acid aqueous solution with a ph value of 3 was made by citric acid and deionized water. 500 ml aqueous solution of 30% was made with deionized water and sodium chlorite, 500 ml aqueous solution of 50% was made with deionized water and citric acid. To mix the above solutions in a conical beaker of 2 L capacity and then put them in the prepared acid aqueous solution by a plastic tube with bottle stopper. The activating agent of stem cells comprising chlorine dioxide was made by bubbling chlorine dioxide in the acid aqueous solution for 40 minutes and the solution was contained in 150 plastic bottles with 100 ml capacity and stored in the fridge.\nEach patient in treatment group received 10 bottles of the solution. Open the plastic bottle cap and do alternate nostril breathing for 2-10 minutes on day 2 after the operation with a bottle a day for three times, then cover the bottleneck once finished. No special nursing means were applied in control group, then observe the complications a month after the operation."}, "[3]": {"tested_on": "BrdU-positive cells (neural stem cells and neural progenitor cells)", "experiment": "BrdU-positive and BrdU-positive/nestin-positive (proliferating) cells in the SVZ region", "assay_type": "in vivo, Sprague-Dawley rats", "conditions": "for number of BrdU-positive cells in the SVZ region, proliferation (mean±SD): BrdU on day 5, 6, 12, 13, 19, 20", "experimental": "(§1) Male Sprague-Dawley rats with the age of 12 weeks and weight of 250^˜280 g were used in the experiment after acclimating for a week.\n(§2) A middle cerebral artery occlusion model was first established in compliance with the method of Longa E Z et al. (Longa E Z, et al. Reversible middle cerebral artery occlusion without craniectomy in rats. Stroke 20:84-91, 1989). More specifically, 0.36 g/kg of 10% chloral hydrate was administered intraperitoneally to rats which had been fasted for 12 hours (although given free access to water) to anesthetize the rats. Next, a midline incision was made in the neck to expose the right common carotid artery. Then, the internal carotid artery and external carotid artery were separated, the posterior carotid artery, which is a branch of the external carotid artery, and the thyroidea arteria were coagulated and severed, the external carotid artery was ligated at the branch of the lingual artery and maxillary artery, a small puncture was formed in the external carotid artery, 4-0 Nylon suture was passed through the common carotid artery from the puncture, and gradually inserted into the internal carotid artery until there was resistance. The length of the Nylon suture was about 18^˜20 mm from the branch of the common carotid artery. As a result of occluding the middle cerebral artery with Nylon suture, an ischemic state was applied for 2 hours to create a middle cerebral artery occlusion model.\n(§3) A cerebral ischemia/reperfusion injury model was established by removing the Nylon suture from the middle cerebral artery of the occlusion model and following reperfusion of blood.\n(§4) The first solution was a mixed solution made of sodium chlorite with the concentration of 7.47% and sodium chloride with the concentration of 1.59% with deionized water; the second solution was made of citric acid with the concentration of 16.7% with deionized water. Same volume of solutions were taken out from different vessels with different volumes and mixed up. Allow the solution to mix for 3-5 minutes and dilute it five times with normal saline, and then filter it with 0.22 μm filter membrane of double-deck. The solution was immediately put into injector. The solution was prepared once being used.\n(§5) Treatment group (120 rats): A cerebral ischemia/reperfusion injury model was established for the rats already. To administer chlorine dioxide solution everytime that prepared from procedure (3) through carotid artery after the second day the model has established, once a day for total ten days.\nOn day 5, 6, 12, 13, 19 and 20 after the model established, 50 mg/kg of 5-bromodeoxyuridine was injected intraperitoneally into 30 rats in each group. Because BrdU is a thymidine analog, it can incorporate into the DNA of cells during the course of cell proliferation (DNA synthesis). Thus, cell proliferation can be analyzed by detecting the amount of intracellular BrdU. The rats were autopsied on day 7, 14 and 21 after the model established for preparation of frozen brain sections. The presence of BrdU-positive cells by immunochemical stain, and the presence of BrdU-positive/nestin-positive cells by double-immunofluorescent stain in the SVZ region were analyzed.\nThe presence of BrdU-positive cells was analyzed using mouse anti-rat BrdU monoclonal antibody.\nThe presence of BrdU-positive/nestin-positive cells was analyzed by double-immunofluorescent stain using a combination of primary antibody of goat anti-rat BrdU polyclonal antibody and secondary antibody of FITC-labeled rabbit anti-goat antibody, and a combination of primary antibody of mouse anti-rat nestin monoclonal antibody and secondary antibody of Rho-labeled rabbit anti-mouse antibody.\n(§6) BRt(%)=(Bt−St)/(Mt−St)×100"}, "[4]": {"tested_on": "nestin-positive cells (neural stem cells)", "experiment": "Nestin-positive cells in the SVZ region, immunohistochemical stain", "assay_type": "in vivo, Sprague-Dawley rats", "conditions": "for number of nestin-positive cells in the SVZ region (mean±SD): diluted solution via carotid artery once a day, ten days", "experimental": "as §1, §2, §3, §4, §5\nTen rats of each group were autopsied on day 7, 14 and 21 after the model established, respectively (total animals are 30 rats from each group). After preparation of tissue specimens, the neural stem cells were counted under a microscope.\nMore specifically, rat frozen brain sections were prepared on day 7, 14 and 21 after the model established, and the presence of nestin-positive cells in the subventricular zone (SVZ) was measured by immunohistochemical stain using the marker of nestin expressed on the neural stem cells. The presence of nestin-positive cells was analyzed using mouse anti-rat nestin monoclonal antibody.\nas §6"}, "[5]": {"conditions": "12 cases traced for eight months"}},
  "data": [
    {"smiles": "[O][Cl+][O-]", "note": "[chlorine dioxide solution, chlorine dioxide]", "values": [
      {"measurement": "CD34-Positive Mononuclear Cells (ratio among mononuclear cells, mean±SD)", "setting": "[1]; Day 7 after administration, n=20, NaClO2 7.47% + citric acid 16.7% 1:1 diluted 5 times, 10 ml/body/day femoral artery puncture", "value": "0.91 ± 0.51", "unit": "%"},
      {"measurement": "CD34-Positive Mononuclear Cells (ratio among mononuclear cells, mean±SD)", "setting": "[1]; Day 14 after administration, n=15, diluted solution 10 ml/body/day femoral artery puncture", "value": "1.4 ± 0.68", "unit": "%"},
      {"measurement": "cases that recurred once and did not recur after treatment for two times", "setting": "chronic eczema; [5]", "value": "four"},
      {"measurement": "cases that recurred twice and did not recur after the third treatment", "setting": "chronic eczema; [5]", "value": "two"},
      {"measurement": "cases with no recurrence", "setting": "chronic eczema; [5]", "value": "six"},
      {"measurement": "clinical sign and pathological change of tissue after treatment", "setting": "chronic eczema; 12 chronic eczema patients", "value": "became normal"},
      {"measurement": "time until stabbing pain and itching disappeared after administration", "setting": "chronic eczema; 12 chronic eczema patients, NaClO2 8%/NaCl 2% + citric acid 12% 1:1, smeared once a day 10 to 15 days", "value": "about half an hour"},
      {"measurement": "time until the affected parts scabbed", "setting": "chronic eczema; 12 chronic eczema patients, topical once a day", "value": "two to five days"},
      {"measurement": "Serious complications (No.)", "setting": "[2]; a month after lung cancer operation, ClO2 gas bubbled into pH 3 citric acid solution, nostril breathing 2-10 minutes three times a day, 10 bottles, control 4 (26.7%)", "value": 1},
      {"measurement": "No complication (No.)", "setting": "[2]; a month after operation, inhalation, control 5 (33.3%)", "value": 9},
      {"measurement": "Minor complications (No.)", "setting": "[2]; a month after operation, inhalation, control 6 (40%)", "value": 5},
      {"measurement": "Serious complications (%)", "setting": "[2]; a month after operation, inhalation, control 26.7%", "value": 6.7, "unit": "%"},
      {"measurement": "No complication (%)", "setting": "[2]; a month after operation, inhalation, control 33.3%", "value": 60, "unit": "%"},
      {"measurement": "Minor complications (%)", "setting": "[2]; a month after operation, inhalation, control 40%", "value": 33.3, "unit": "%"},
      {"measurement": "BRt: BrdU-positive cells (proliferation) in treatment group relative to model group = 100%", "setting": "[3]; Day 7", "value": 157.4, "unit": "%"},
      {"measurement": "number of BrdU-positive cells in the SVZ region, proliferation (mean±SD)", "setting": "[3]; Day 7, model group 136.56 ± 9.93, sham 52.8 ± 3.85, diluted solution via carotid artery once a day, ten days", "value": "184.61 ± 12.3", "unit": "No. cells/mm2"},
      {"measurement": "BRt: BrdU-positive cells (proliferation) in treatment group relative to model group = 100%", "setting": "[3]; Day 14", "value": 156.9, "unit": "%"},
      {"measurement": "number of BrdU-positive cells in the SVZ region, proliferation (mean±SD)", "setting": "[3]; Day 14, model group 328.6 ± 12.5, sham 33.9 ± 2.95", "value": "496.2 ± 30.6", "unit": "No. cells/mm2"},
      {"measurement": "BRt: BrdU-positive cells (proliferation) in treatment group relative to model group = 100%", "setting": "[3]; Day 21", "value": 141.2, "unit": "%"},
      {"measurement": "number of BrdU-positive cells in the SVZ region, proliferation (mean±SD)", "setting": "[3]; Day 21, model group 279.9 ± 12.8, sham 23.9 ± 1.95", "value": "385.3 ± 20.9", "unit": "No. cells/mm2"},
      {"measurement": "presence of proliferating nestin-positive/BrdU-positive cells in the SVZ region", "setting": "[3]; treatment group, double-immunofluorescent stain", "value": "confirmed"},
      {"measurement": "BRt: nestin-positive cells in treatment group relative to model group = 100%, (Bt-St)/(Mt-St)x100", "setting": "[4]; Day 7", "value": 157.4, "unit": "%"},
      {"measurement": "number of nestin-positive cells in the SVZ region (mean±SD)", "setting": "[4]; Day 7 after model established, model group 210.5 ± 22.3, sham 45.6 ± 5.69", "value": "305.2 ± 30.6", "unit": "No. cells/mm2"},
      {"measurement": "BRt: nestin-positive cells in treatment group relative to model group = 100%, (Bt-St)/(Mt-St)x100", "setting": "[4]; Day 14", "value": 150.2, "unit": "%"},
      {"measurement": "number of nestin-positive cells in the SVZ region (mean±SD)", "setting": "[4]; Day 14, model group 74.5 ± 13.4, sham 13.2 ± 1.64", "value": "105.3 ± 15.4", "unit": "No. cells/mm2"},
      {"measurement": "BRt: nestin-positive cells in treatment group relative to model group = 100%, (Bt-St)/(Mt-St)x100", "setting": "[4]; Day 21", "value": 138.5, "unit": "%"},
      {"measurement": "number of nestin-positive cells in the SVZ region (mean±SD)", "setting": "[4]; Day 21, model group 46.2 ± 6.31, sham 1.99 ± 1.09", "value": "63.2 ± 7.55", "unit": "No. cells/mm2"}
    ]}
  ]
}
